The values below come from US20130071330A1, “METHODS OF IDENTIFYING AGENTS EFFECTIVE TO TREAT COGNITIVE DECLINE AND DISEASES ASSOCIATED THEREWITH” (priority 2010, published 2013).

One may read the EC50 as the concentration needed to bring the measured effect to its halfway point.

One data set has as its system mice. Briefly: Fear conditioning assay (Abeta oligomer-induced memory deficit). Format: in vivo. The text has this: The formation of contextual memories is dependent upon the integrity of medial temporal lobe structures such as the hippocampus. […] Animals that show good learning will express an increase in freezing behavior when placed back into the same context. This freezing is absent in a novel context.

For data set [1], the system named is Abeta assemblies isolated from patients, membrane trafficking. Briefly: Membrane trafficking assay with Abeta assemblies isolated from AD or normal patients. The settings on record: FIG. 4. The format is cell-based, rat. The protocol: (§1) MTT assay Primary neurons from E18 Sprague-Dawley rat embryos were plated at optimized concentrations in 384 well plates in NB media (Invitrogen). Neurons were maintained in cultures for 3 weeks, with twice weekly feeding of NB media with N2 supplement (Invitrogen). Vehicle or Abeta oligomer preparations (1.5 uM), followed by compounds were added to cells and incubated for 1 to 24 hr at 37° C. in 5% CO2. MTT reagent (3-(4,5-dimethylthizaol-2-yl)-2,5diphenyl tetrazolium bromide) reagent (Roche Molecular Biochemicals) was reconstituted in phosphate buffered saline to 5 mg/ml. 10 ul of MTT labeling reagent was added to each well and incubated at 37° C. for 1 h, then imaged.
Abeta assemblies were isolated from patients with Alzheimer's Disease (AD) or from normal patients. The Abeta assemblies were tested for their ability to modulate membrane trafficking. […] The assay was performed as described herein.

Data set [2] relates to Abeta oligomer effects on membrane trafficking. As to the kind of experiment: MTT membrane trafficking (formazan exocytosis) assay with Abeta oligomers in mature primary neurons. Format: cell-based, rat. The settings on record: for block of Abeta oligomer-caused decrease of intracellular formazan-filled vesicles (puncta): neurons 3 weeks in vitro, for antibody stoichiometric amount (3 μM Aβ, 1.5 μM IgG), added prior to oligomers. The protocol:
as §1
Each assay plate was formatted so that compounds were tested with and without Abeta on each plate.
Experimental controls: Abeta 1-42 oligomers were made and used as positive controls. The oligomers can be made by any method, such as published methods (Dhalgren et al., '02, LeVine '04, Shrestha et al., '06, Puzzo et al., '05, Barghorn et al., '05, Johansson et al., '06). […] Negative controls included vehicle-treated neurons as well as neurons treated with Compound Z. These controls, on each plate, serve as normalization tools to calibrate assay performance on a plate-by-plate basis.
Statistical software and Analysis: Data handling and analysis was accomplished by Cellomics VTI image analysis software and STORE automated database software. Statistical comparisons were made via pairwise Tukey-Kramer analysis to determine the significance of the separation between compound+Abeta oligomers from Abeta alone, and between compound alone from vehicle. […] Power analysis was set for a number of replicate screening wells that will minimize false negatives such as N=4. Rank ordering of compounds was done on the basis of secondary assay mechanism of action and physicochemical properties of the hit structures.
Abeta 1-42 oligomers made according to published methods (Dhalgren et al., '02, LeVine '04, Shrestha et al., '06, Puzzo et al., '05, Barghorn et al., '05, Johansson et al., '06) or isolated from human brain tissue (Walsh et al., '02, Lesne et al., '06, Shankar et al '08) served as positive controls. Toxicity was monitored in each image-based assay via quantification of nuclear morphology visualized with the DNA binding dye DAPI (Invitrogen). Nuclei that were fragmented were considered to be in late stage apoptosis (Majno and Joris '95). Peptide lots producing unusual peptide size ranges or significant toxicity at standard concentrations on neurons were rejected.
Image Processing: Images are captured and analyzed with the Cellomics VTI automated microscope platform. For statistical analysis, a Tukey-Kramer pair-wise comparison with unequal variance is used.
Primary rat neurons grown for at least 3 weeks in vitro were chosen as the basis for this screening assay. […] More complex systems such as acute or organotypic brain slices are very useful but not amenable to high throughput screening. […] For this reason, primary neuronal cultures were chosen because of their ability to be used in high throughput screens and fidelity to what occurs in vivo.
The exocytosis assay was adapted for use with mature primary neuronal cultures grown for 3 weeks in vitro.

Structures are written as SMILES. “Also recorded” adds a separate entry of the source.

On to `COc1cc(CCC(C)NCc2ccc(C(F)(F)F)cc2)ccc1O` (centres unmarked) [Compound Z], for which the “block of oligomer-mediated memory deficits (contextual fear conditioning)” value in the data set with mice (2 pmol dose, given prior to Abeta (200 nM), tested about 24 hours after training, p<0.05) is given as “completely blocked”. The “block of oligomer effects on memory, dose dependence” value in the data set with mice (administered prior to Abeta oligomer administration) is given as “blocked oligomer effects on memory in a dose-dependent manner”. Further, in the data set on mice (any dose), the adverse behavioral changes entry is “No adverse behavioral changes were observed”. Moreover, in the data set with mice (without Abeta, data not shown), the “effect of compound alone on memory” value is reported as “No effect”. Besides, in data set [1] (Abeta assemblies from age-matched normal individuals), the “effect on Abeta assemblies isolated from age-matched normal individuals” value is “no effect”. Besides, the “block of trafficking effects of AD-brain derived Abeta assemblies” value in data set [1] (IMW (10-100 KDa) Abeta assemblies isolated from AD patients) was “significantly blocked”. Besides, in data set [2] (Neuron, read-out: inhibits oligomer effects on membrane trafficking, EC50, primary rat neurons, Abeta oligomers, FIG. 2B), the EC50 amounted to 7 µM. Besides, the “block of Abeta oligomer-caused decrease of intracellular formazan-filled vesicles (puncta)” value in data set [2] was “inhibits oligomer effects on membrane trafficking; also recorded: effective at stopping Abeta oligomer mediated effects on membrane trafficking”.

In the case of `O[C@H]1[C@H](O)[C@@H](O)[C@H](O)[C@@H](O)[C@@H]1O` [scyllo-inositol, reference compound], in data set [2], the “block of Abeta oligomer-caused decrease of intracellular formazan-filled vesicles (puncta)” value was “none were active”.

Regarding `C[C@]12N[C@H](Cc3ccccc31)c1ccccc12` [MK-801, reference compound], the “block of Abeta oligomer-caused decrease of intracellular formazan-filled vesicles (puncta)” value in data set [2] is “none were active”.

For `C[N+](C)(C)CCCCCC[N+](C)(C)C` [hexamethonium bromide, reference compound], the “block of Abeta oligomer-caused decrease of intracellular formazan-filled vesicles (puncta)” value in data set [2] is recorded as “none were active”.
